Measured values: patent US20240246935A1 (Plexium, Inc., priority 2021, published 2024)

How the values were obtained:
IKZF2 (Helios) = test: IKZF2 reporter degradation assay (HEK 293T IKZF2-mNeonGreen reporter cell line); format: cell-based, human; conditions: 1 μM compound, 24 hour incubation, HEK 293T IKZF2-mNeonGreen reporter
Source text: Polycistronic plasmids were constructed for the mammalian expression of fluorescent reporter fusions of human transcription factors IKZF1 (Ikaros), IKZF2 (Helios), and IKZF3 (Aiolos). The respective protein sequences had their C-terminal end joined to a GGGGS linker repeated three times followed by mNeonGreen, P2A sequence, and mScarlet. The DNA sequences of the open reading frames are as follows:
IKZF1, IKZF2, and IKZF3 constructs were cloned into the UCOE Hygromycin expression vectors (Millipore Sigma). Reporter constructs were transfected using cationic lipid reagents into adherent HEK 293T cells and stable integrants were selected by treatment with 200 μg/mL hygromycin B. Clonal populations were obtained from the population of stable integrants either by limiting dilution or fluorescence activated cell sorting.
The clonal stable cell lines were maintained under constant 200 μg/mL hygromycin B selection while being passaged for use in the degradation assays. […] The fluorescence intensity of the IKZF1/2/3-mNeonGreen (FITC channel) and mScarlet (PE channel) reporters were routinely analyzed by flow cytometry to confirm consistent expression levels between experiments.
The IKZF1/IKZF2/IKZF3 degradation assays were carried out by harvesting the HEK 293T reporter cell lines and resuspending the cells in media formulated for reduced background fluorescence (FluoroBrite; Thermo Fisher). The respective cell lines were seeded at a density of 4000 cells/well into black-walled 384-well optical grade assay tissue culture plates. The cells were incubated overnight at 37° C. to allow for attachment to the assay plate. Dilutions of the compounds were prepared in DMSO from 10 mM compound stocks. The assay plates were treated with appropriate concentrations of the compounds by dispensing the DMSO dilutions in quadruplicate wells with an upper limit of 0.5% final DMSO.
After 24 hour incubation with the compounds, the assay plates were imaged on an ImageXpress Pico microscopy system (cells maintained at 37° C. during imaging) to obtain the fluorescent readouts. The assay plates were imaged in the FITC and Tetramethylrhodamine (TRITC) channels to obtain the mNeonGreen fluorescence intensity (reporter degradation data) and mScarlet fluorescence intensity (for cell segmentation). 293T-IKZF1 and 293T-IKZF3 reporter cell lines were imaged with exposures of 500 milliseconds (ms) for both FITC and TRITC channels, while the 293T-IKZF2 reporter cell line was imaged with exposures of 1000 ms for FITC and 1250 ms for TRITC. The resulting data was analyzed with Cell Reporter Xpress software using the 2-channel cell scoring analysis with a “percent positive” readout. The TRITC channel was selected for the “nuclei” segmentation with a threshold of 20 while the FITC channel was selected for the “Marker 1” segmentation and a threshold of 100 for the IKZF1 and IKZF3 reporter lines. […] The minimum segmentation width was set to 6 micrometers and the maximum segmentation width was set to 15 micrometers for all cell lines. The DCs calculations were determined by regression to best fit four-parameter logistic curves using GraphPad Prism.

[1] = target: human E3 ligase component cereblon (CRBN) (Homo sapiens (Human), UniProt Q96SW2); test: Cereblon (CRBN) target engagement, NanoBRET TE Intracellular E3 Ligase Assay in transfected HEK-293T cells; conditions: read-out: CRBN Binding EC50
Procedure: HEK293T cells were harvested ca. 75% confluent with trypsin and plated (500,000 cells/well) in a 6-well tissue culture plate in 2 mL of Dulbecco's Modified Eagle Medium (DMEM)+10% Fetal Bovine Serum (FBS) and incubated overnight at 37° C.
The NanoLuc-CRBN fusion vector (Nluc-CRBN; Promega) contains the coding region of human E3 ligase component cereblon (CRBN) fused to the C-terminus of the NanoLuc luciferase coding region. A mixture of 10 ng Nluc-CRBN and 990 ng DDB1 Expression Vector (Promega) was added to 125 μL Opti-Minimum Essential Medium (Opti-MEM™; Thermo Fisher) along with 2 μL P3000 reagent (Thermo Fisher) in a 1.5 mL epppendorf tube. This solution was added to Lipofectamine 3000 transfection reagent (5 μL; Thermo Fisher) in Opti-MEM (125 μL), mixed well, and incubated for 15 minutes at room temperature. The transfection mixture was added dropwise to cells and incubated overnight at 37° ° C., 5% CO2. Following transfection, cells were washed once with PBS, and trypsin (250 μL) was added and incubated 30-45 sec to dislodge cells. Complete media (2 mL) was added to resuspend cells to form a single cell suspension. Cells were centrifuged at 320×g for 5 min at room temperature, the supernatant was removed, and the cell pellet resuspended in Opti-MEM (3 mL; wash step repeated×2). After final resuspension in 5 mL Opti-MEM, cells were counted and resuspended at 200,000 cells/mL in Opti-MEM.
Cereblon target engagement was monitored by Bioluminescence Resonance Energy Transfer (BRET) in transfected HEK-293T cells using the NanoBRET TE Intracellular E3 Ligase Assay (Promega). Briefly, 384-well plates (white opaque plates, Corning 3574, low binding surface) were seeded with transfected HEK-293T cells (38 μL/well). 2 μL of 10 μM CRBN tracer (diluted 1:5 in Tracer Dilution Buffer) was added to each well. Plates were centrifuged at 320×g for 1 min at room temperature. Test compounds were added in a 11-point dilution series (typically 10 μM to […]) using a TECAN D300e Digital Dispenser. Plates were shaken for 2 minutes on a microplate shaker to mix compounds. Plates were centrifuged at 320×g for 1 min at room temperature, and subsequently incubated for 2 hours at 37° C.
After incubation, plates were allowed to cool to room temperature for 15 minutes. 20 μL of 3× Complete NanoBRET™ Nano-Glo® Substrate plus Inhibitor Solution (Promega, 1:166 Substrate and 1:500 dilution of Extracellular NanoLuc® Inhibitor diluted in Opti-MEM) were added to each well. Plates were incubated with shaking at room temperature for 3 minutes covered with foil. Plates were read on a CLARIOstar microplate reader (BMG LabTech), measuring at 450 nm (donor emission) and 610 nm (acceptor emission). The IC50 values were determined by regression to best fit four-parameter logistic curves using GraphPad Prism.

human E3 ligase component cereblon (CRBN), sequence (Q96SW2 whole entry): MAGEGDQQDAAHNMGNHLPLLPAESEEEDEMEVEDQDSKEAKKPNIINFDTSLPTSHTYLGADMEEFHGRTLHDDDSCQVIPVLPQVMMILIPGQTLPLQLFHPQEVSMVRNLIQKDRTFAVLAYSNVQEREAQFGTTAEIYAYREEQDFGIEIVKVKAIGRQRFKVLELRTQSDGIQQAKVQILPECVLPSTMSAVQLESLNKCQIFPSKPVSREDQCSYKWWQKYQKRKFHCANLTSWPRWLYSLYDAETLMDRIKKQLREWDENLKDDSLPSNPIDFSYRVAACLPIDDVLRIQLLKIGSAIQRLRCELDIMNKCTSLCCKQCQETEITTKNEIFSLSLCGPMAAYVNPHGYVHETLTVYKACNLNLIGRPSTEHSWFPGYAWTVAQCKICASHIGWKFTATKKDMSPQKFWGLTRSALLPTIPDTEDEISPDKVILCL
human E3 ligase component cereblon (CRBN), sequence (Q16531 whole entry partner): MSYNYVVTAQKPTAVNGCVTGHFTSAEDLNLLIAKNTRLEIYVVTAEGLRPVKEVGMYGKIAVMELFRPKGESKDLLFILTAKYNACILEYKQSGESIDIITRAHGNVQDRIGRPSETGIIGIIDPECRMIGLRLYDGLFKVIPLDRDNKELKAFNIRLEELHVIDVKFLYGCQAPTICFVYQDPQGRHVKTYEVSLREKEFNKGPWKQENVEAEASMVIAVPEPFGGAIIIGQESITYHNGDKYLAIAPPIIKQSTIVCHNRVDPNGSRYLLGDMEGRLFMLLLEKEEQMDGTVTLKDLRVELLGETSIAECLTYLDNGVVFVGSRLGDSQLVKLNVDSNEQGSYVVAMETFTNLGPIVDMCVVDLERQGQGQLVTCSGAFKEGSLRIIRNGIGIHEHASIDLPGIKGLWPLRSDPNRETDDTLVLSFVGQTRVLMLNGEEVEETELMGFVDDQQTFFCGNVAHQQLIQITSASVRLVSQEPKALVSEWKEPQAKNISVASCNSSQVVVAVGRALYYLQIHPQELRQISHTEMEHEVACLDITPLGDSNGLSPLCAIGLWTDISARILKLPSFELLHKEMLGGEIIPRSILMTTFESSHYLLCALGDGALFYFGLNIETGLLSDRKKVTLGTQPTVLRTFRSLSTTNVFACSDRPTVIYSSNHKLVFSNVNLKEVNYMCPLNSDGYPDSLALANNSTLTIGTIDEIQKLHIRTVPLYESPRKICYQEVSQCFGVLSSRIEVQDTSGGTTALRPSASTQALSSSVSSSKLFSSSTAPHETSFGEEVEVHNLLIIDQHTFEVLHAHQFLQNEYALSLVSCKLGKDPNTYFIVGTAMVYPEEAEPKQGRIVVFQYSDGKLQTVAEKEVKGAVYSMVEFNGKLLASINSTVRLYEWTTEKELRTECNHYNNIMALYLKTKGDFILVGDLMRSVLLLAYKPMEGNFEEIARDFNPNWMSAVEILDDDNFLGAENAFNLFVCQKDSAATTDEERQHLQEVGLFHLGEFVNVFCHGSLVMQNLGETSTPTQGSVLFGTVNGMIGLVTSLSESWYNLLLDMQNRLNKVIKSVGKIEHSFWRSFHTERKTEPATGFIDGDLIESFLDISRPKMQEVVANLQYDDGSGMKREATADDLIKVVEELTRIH

Row | SMILES | EC50 [1] [nM] | IKZF2 % Degradation @ 1 μM (IKZF2 (Helios)) [%]
1 | O=C1CCC(N2Cc3cc(O[C@H]4CCCC[C@@H]4N4CC(c5cccc(C(F)(F)F)c5)C4)ccc3C2=O)C(=O)N1 (mixture of isomers) [Compound 62, Rac-3-(1-oxo-5-(((trans)-2-(3-(3-(trifluoromethyl)phenyl)azetidin-1-yl)cyclohexyl)oxy)isoindolin-2-yl)piperidine-2,6-dione] | 46 | 87.5
2 | N#Cc1cc(F)ccc1C1CN([C@H]2CCCC[C@@H]2Oc2ccc3c(c2)CN(C2CCC(=O)NC2=O)C3=O)C1 (mixture of isomers) [Compound 101, Rac-2-(1-((trans)-2-((2-(2,6-dioxopiperidin-3-yl)-1-oxoisoindolin-5-yl)oxy)cyclohexyl)azetidin-3-yl)-5-fluorobenzonitrile] | 33 | 79.2
3 | O=C1CCC(N2Cc3cc(O[C@H]4CCCC[C@@H]4N4CC(c5ccc(OC(F)(F)F)cc5)C4)ccc3C2=O)C(=O)N1 (mixture of isomers) [Compound 60, Rac-3-(1-oxo-5-(((trans)-2-(3-(4-(trifluoromethoxy)phenyl)azetidin-1-yl)cyclohexyl)oxy)isoindolin-2-yl)piperidine-2,6-dione] | 15 | 84.9
4 | N#Cc1cc(F)ccc1C1CN([C@H]2CCCC[C@H]2Oc2ccc3c(c2)CN(C2CCC(=O)NC2=O)C3=O)C1 (stereo partly drawn) [Compound 46, 2-(1-((1S,2R)-2-((2-(2,6-dioxopiperidin-3-yl)-1-oxoisoindolin-5-yl)oxy)cyclohexyl)azetidin-3-yl)-5-fluorobenzonitrile] | 22 | <15
5 | O=C1CCC(N2Cc3cc(O[C@@H]4CCCC[C@@H]4N4CC(c5ccc(OC(F)(F)F)cc5)C4)ccc3C2=O)C(=O)N1 (mixture of isomers) [Compound 61, Rac-3-(1-oxo-5-(((cis)-2-(3-(4-(trifluoromethoxy)phenyl)azetidin-1-yl)cyclohexyl)oxy)isoindolin-2-yl)piperidine-2,6-dione] | 14 | 36.3
6 | O=C1CCC(N2Cc3cc(O[C@@H]4CCCC[C@@H]4N4CC(O)(c5ccccc5)C4)ccc3C2=O)C(=O)N1 (mixture of isomers) [Compound 97, Rac-3-(5-(((cis)-2-(3-hydroxy-3-phenylazetidin-1-yl)cyclohexyl)oxy)-1-oxoisoindolin-2-yl)piperidine-2,6-dione] | 31 | <15
7 | O=C1CCC(N2Cc3cc(O[C@H]4CCCC[C@@H]4N4CC(c5ccc(C(F)(F)F)cc5)C4)ccc3C2=O)C(=O)N1 (stereo partly drawn) [Compound 58, 3-(1-oxo-5-(((1S,2S)-2-(3-(4-(trifluoromethyl)phenyl)azetidin-1-yl)cyclohexyl)oxy)isoindolin-2-yl)piperidine-2,6-dione] | 71 | 85.8
8 | N#Cc1ccccc1C1CN([C@H]2CCCC[C@H]2Oc2ccc3c(c2)CN(C2CCC(=O)NC2=O)C3=O)C1 (mixture of isomers) [Compound 109, Rac-2-(1-((cis)-2-((2-(2,6-dioxopiperidin-3-yl)-1-oxoisoindolin-5-yl)oxy)cyclohexyl)azetidin-3-yl)benzonitrile] | 37 | <15
9 | O=C1CCC(N2Cc3c(ccc(O[C@H]4CCCC[C@@H]4N4CC(c5ccccc5)C4)c3Cl)C2=O)C(=O)N1 (single isomer, unassigned) [Compound 41] | 61 | <15
10 | O=C1CCC(N2Cc3cc(O[C@H]4CCCC[C@@H]4N4CC(c5cccc(N6CCOCC6)c5)C4)ccc3C2=O)C(=O)N1 (stereo partly drawn) [Compound 112, 3-(5-(((1S,2S)-2-(3-(3-morpholinophenyl)azetidin-1-yl)cyclohexyl)oxy)-1-oxoisoindolin-2-yl)piperidine-2,6-dione] | 25 | 72.6
11 | N#Cc1cc(Cl)ccc1C1CN([C@H]2CCCC[C@@H]2Oc2ccc3c(c2)CN(C2CCC(=O)NC2=O)C3=O)C1 (mixture of isomers) [Compound 99, Rac-5-chloro-2-(1-((trans)-2-((2-(2,6-dioxopiperidin-3-yl)-1-oxoisoindolin-5-yl)oxy)cyclohexyl)azetidin-3-yl)benzonitrile] | 44 | 80.2
12 | N#Cc1ccc(C2CN(C3CCCCC3Oc3ccc4c(c3)CN(C3CCC(=O)NC3=O)C4=O)C2)cc1 (stereo not shown) [Compound 117, 4-(1-(2-((2-(2,6-dioxopiperidin-3-yl)-1-oxoisoindolin-5-yl)oxy)cyclohexyl)azetidin-3-yl)benzonitrile] | 31 | <15

The next compounds have a lower EC50 [1] than those just listed; values first:

Row | EC50 [1] [nM] | SMILES | IKZF2 % Degradation @ 1 μM (IKZF2 (Helios)) [%]
13 | 13 | N#Cc1cccc(C2CN([C@H]3CCCC[C@@H]3Oc3ccc4c(c3)CN(C3CCC(=O)NC3=O)C4=O)C2)c1 (stereo partly drawn) [Compound 113, 3-(1-((1S,2S)-2-((2-(2,6-dioxopiperidin-3-yl)-1-oxoisoindolin-5-yl)oxy)cyclohexyl)azetidin-3-yl)benzonitrile] | 73.7
14 | 12 | N#Cc1ccc(C2CN([C@@H]3CCCC[C@@H]3Oc3ccc4c(c3)CN(C3CCC(=O)NC3=O)C4=O)C2)c(Cl)c1 (mixture of isomers) [Compound 75, Rac-3-chloro-4-(1-((cis)-2-((2-(2,6-dioxopiperidin-3-yl)-1-oxoisoindolin-5-yl)oxy)cyclohexyl)azetidin-3-yl)benzonitrile] | 36.8
15 | 8 | N#Cc1ccc(C2CN([C@H]3CCCC[C@@H]3Oc3ccc4c(c3)CN(C3CCC(=O)NC3=O)C4=O)C2)cc1F (mixture of isomers) [Compound 119, Rac-4-(1-((trans)-2-((2-(2,6-dioxopiperidin-3-yl)-1-oxoisoindolin-5-yl)oxy)cyclohexyl)azetidin-3-yl)-2-fluorobenzonitrile] | 63.8
16 | 7 | O=C1CCC(N2Cc3cc(O[C@H]4CCC[C@@H]4N4CCC(c5ccccc5)CC4)ccc3C2=O)C(=O)N1 (stereo partly drawn) [Compound 72, 3-(1-oxo-5-(((1S,2S)-2-(4-phenylpiperidin-1-yl)cyclopentyl)oxy)isoindolin-2-yl)piperidine-2,6-dione] | 38.2
17 | 5 | COc1cccc(C2CN([C@H]3CCCC[C@@H]3Oc3ccc4c(c3)CN(C3CCC(=O)NC3=O)C4=O)C2)c1 (stereo partly drawn) [Compound 126, 3-(5-(((1S,2S)-2-(3-(3-methoxyphenyl)azetidin-1-yl)cyclohexyl)oxy)-1-oxoisoindolin-2-yl)piperidine-2,6-dione] | 84.3
